Data from the supplement of paper PMC10307832.

Assays:
Assay in all cases: relative viability (nuclei count vs DMSO), 5 days (fraction); higher = more cells survive
[1] = test system: NCI-H661
Summary of the method: (§1)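 Relative viability equals treated-well nuclei counts divided by vehicle-well nuclei counts. Counts came from 4× images of lung cancer cell lines grown in 1536-well plates for 5 days after pin-tool dosing on the day after seeding. Dosing used one drug alone or a fixed anchor-drug dose plus five library-drug doses (not always all listed) in √10 steps, and values are medians of duplicate plates.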

[2] = test system: NCI-H1915
Summary of the method: as §1

[3] = test system: NCI-H1666
Summary of the method: as §1

[4] = test system: LCLC-97TM1
Summary of the method: as §1

[5] = test system: NCI-H1792
Summary of the method: as §1

[6] = test system: NCI-H838
Summary of the method: as §1

[7] = test system: EKVX
Summary of the method: as §1

[8] = test system: NCI-H1975
Summary of the method: as §1

[9] = test system: SK-LU-1
Summary of the method: as §1

[10] = test system: NCI-H647
Summary of the method: as §1

[11] = test system: PC-3 [JPC-3]
Summary of the method: as §1

[12] = test system: NCI-H23
Summary of the method: as §1

[13] = test system: NCI-H441
Summary of the method: as §1

[14] = test system: NCI-H460
Summary of the method: as §1

[15] = test system: NCI-H727
Summary of the method: as §1

[16] = test system: NCI-H596
Summary of the method: as §1

[17] = test system: NCI-H1437
Summary of the method: as §1

[18] = test system: NCI-H358
Summary of the method: as §1

[19] = test system: NCI-H322M
Summary of the method: as §1

[20] = test system: NCI-H520
Summary of the method: as §1

[21] = test system: NCI-H1650
Summary of the method: as §1

## CN1CCN(CCOc2cc(OC3CCOCC3)c3c(Nc4c(Cl)ccc5c4OCO5)ncnc3c2)CC1 [Saracatinib] + CS(=O)(=O)N1CCN(Cc2cc3nc(-c4cccc5[nH]ncc45)nc(N4CCOCC4)c3s2)CC1 [Pictilisib] (partner 1 µM)
[1]; first compound 0.02 µM
  relative viability: 0.452
[1]; first compound 0.2 µM
  relative viability: 0.271
[1]; first compound 0.6325 µM
  relative viability: 0.314
[1]; first compound 2 µM
  relative viability: 0.241
[2]; first compound 0.02 µM
  relative viability: 0.952
[2]; first compound 0.2 µM
  relative viability: 0.79
[2]; first compound 0.6325 µM
  relative viability: 0.928
[2]; first compound 2 µM
  relative viability: 0.767
[3]; first compound 0.02 µM
  relative viability: 0.493
[3]; first compound 0.2 µM
  relative viability: 0.413
[3]; first compound 0.6325 µM
  relative viability: 0.563
[3]; first compound 2 µM
  relative viability: 0.469
[4]; first compound 0.02 µM
  relative viability: 0.231
[4]; first compound 0.2 µM
  relative viability: 0.12
[4]; first compound 0.6325 µM
  relative viability: 0.193
[4]; first compound 2 µM
  relative viability: 0.186
[5]; first compound 0.02 µM
  relative viability: 0.293
[5]; first compound 0.2 µM
  relative viability: 0.239
[5]; first compound 0.6325 µM
  relative viability: 0.302
[5]; first compound 2 µM
  relative viability: 0.263
[6]; first compound 0.02 µM
  relative viability: 0.351
[6]; first compound 0.2 µM
  relative viability: 0.447
[6]; first compound 0.6325 µM
  relative viability: 0.344
[6]; first compound 2 µM
  relative viability: 0.326
[7]; first compound 0.02 µM
  relative viability: 0.417
[7]; first compound 0.2 µM
  relative viability: 0.409
[7]; first compound 0.6325 µM
  relative viability: 0.366
[7]; first compound 2 µM
  relative viability: 0.175
[8]; first compound 0.02 µM
  relative viability: 0.331
[8]; first compound 0.6325 µM
  relative viability: 0.298
[8]; first compound 2 µM
  relative viability: 0.174
[9]; first compound 0.02 µM
  relative viability: 0.443
[9]; first compound 0.2 µM
  relative viability: 0.419
[9]; first compound 0.6325 µM
  relative viability: 0.388
[9]; first compound 2 µM
  relative viability: 0.226
[10]; first compound 0.02 µM
  relative viability: 0.386
[10]; first compound 0.2 µM
  relative viability: 0.387
[10]; first compound 0.6325 µM
  relative viability: 0.425
[10]; first compound 2 µM
  relative viability: 0.216
[11]; first compound 0.02 µM
  relative viability: 0.782
[11]; first compound 0.2 µM
  relative viability: 0.613
[11]; first compound 0.6325 µM
  relative viability: 0.475
[11]; first compound 2 µM
  relative viability: 0.395
[12]; first compound 0.02 µM
  relative viability: 0.517
[12]; first compound 0.6325 µM
  relative viability: 0.424
[12]; first compound 2 µM
  relative viability: 0.35
[13]; first compound 0.02 µM
  relative viability: 0.461
[13]; first compound 0.2 µM
  relative viability: 0.406
[13]; first compound 0.6325 µM
  relative viability: 0.501
[13]; first compound 2 µM
  relative viability: 0.329
[14]; first compound 0.02 µM
  relative viability: 0.367
[14]; first compound 0.6325 µM
  relative viability: 0.242
[14]; first compound 2 µM
  relative viability: 0.286
[15]; first compound 0.02 µM
  relative viability: 0.295
[15]; first compound 0.2 µM
  relative viability: 0.423
[15]; first compound 0.6325 µM
  relative viability: 0.354
[15]; first compound 2 µM
  relative viability: 0.407
[16]; first compound 0.02 µM
  relative viability: 0.218
[16]; first compound 0.2 µM
  relative viability: 0.429
[16]; first compound 0.6325 µM
  relative viability: 0.435
[16]; first compound 2 µM
  relative viability: 0.319
[17]; first compound 0.02 µM
  relative viability: 0.416
[17]; first compound 0.2 µM
  relative viability: 0.418
[17]; first compound 0.6325 µM
  relative viability: 0.454
[17]; first compound 2 µM
  relative viability: 0.393
[18]; first compound 0.02 µM
  relative viability: 0.348
[18]; first compound 0.2 µM
  relative viability: 0.226
[18]; first compound 0.6325 µM
  relative viability: 0.284
[18]; first compound 2 µM
  relative viability: 0.257
[19]; first compound 0.02 µM
  relative viability: 0.549
[19]; first compound 0.2 µM
  relative viability: 0.474
[19]; first compound 0.6325 µM
  relative viability: 0.496
[19]; first compound 2 µM
  relative viability: 0.296
[20]; first compound 0.02 µM
  relative viability: 0.321
[20]; first compound 0.2 µM
  relative viability: 0.263
[20]; first compound 0.6325 µM
  relative viability: 0.273
[20]; first compound 2 µM
  relative viability: 0.228
[21]; first compound 0.02 µM
  relative viability: 0.626
[21]; first compound 0.2 µM
  relative viability: 0.468
[21]; first compound 0.6325 µM
  relative viability: 0.377
[21]; first compound 2 µM
  relative viability: 0.314
